Ends that are not written are not given here.
How the values were obtained:
[1] = test system: metastatic cancer cells; experiment: Metastasis model in mice; assay type: in vivo; conditions: peptide 1 mM
[2] = target: T1, human DPEP2 (Homo sapiens, UniProt Q9H4A9); experiment: Immunofluorescence binding to Cos-1 cells transfected with human DPEP2; conditions: Alexa-488 conjugate
T1 construct: expressed in transfected cells; host or cells: Cos-1
Protocol: Cos-1 cells were transiently transfected with either 3 μg of human DPEP-1, DPEP2, or DPEP3 gene using Lipofectamine 2000 (Invitrogen) reagent in OptiMEM medium. 24 hours after transfection, DPEP-1, DPEP2, or DPEP3 expressing cells were re-seeded on collagen coated (neutralized) wells in 24 well plates and allowed to grow for 24 hours at 37° C. […] Cells were blocked with FBS/NBSA/Tween in PBS for 30 minutes on ice. Cells were then washed with PBS and incubated with LSALT or GFE-1, conjugated with Alexa-488 (green). After incubation, cells were washed with PBS and stained with DAPI for 5 minutes on ice. Cells were then washed with PBS and fixed using 4% paraformaldehyde and immunofluorescence microscopy was performed to assess binding. Representative photomicrographs are shown for each experimental condition (n=3) in FIG. 6A. Proteins from DPEP-1, DPEP2 and DPEP3 transfected cells were isolated after 48 hours using octyl-glucoside/RIPA lysis buffer and western blot analysis was performed to assess DPEP-1, DPEP2 and DPEP3 protein expression using specific antibodies; DPEP-1 antibody (Sigma), DPEP2 (Abcam) and DPEP3 (Santacruz). Blots were stripped and reprobed with an anti-β-actin.

[3] = test system: DPEP1-expressing COS1 monolayers; experiment: Cancer cell binding to DPEP1-expressing COS1 monolayers; assay type: cell-based; conditions: LSALT 50 μM
Protocol: Cos-1 cells were transfected with 3 μg of human DPEP-1 cDNA. Transfected cells were reseeded 24 hours after on 12 or 24 well places. 48 hours later, 70 W melanoma cells expressing stable GFP-luciferase were harvested using Puck's EDTA and 10×10^3 cells were seeded on top of the DPEP-1 expressing Cos-1 monolayer. Cells were incubated for 4 hours at 37 C. After incubation cells were vigorously washed two times with PBS. Cells were then fixed using paraformaldehyde (4%). The number 70 W melanoma cells bound/adhered were counted under 10× magnification over 10 different field of views using an inverted fluorescence microscope (FIG. 24A). […] A unpaired 2-tailed Student's t-test was performed to compare the binding of 70 W melanoma cells to DPEP-1 transfected cells against the control of mock transfected cells. Values shown are from three independent experiments; asterisks (***) indicate P<0.001 as compared with mock transfected cells.
LSALT decreases binding of metastatic cancer cells to DPEP1-expressing COS1 monolayers in vitro. […] FIGS. 21B-C show quantification of murine melanoma B16-F10 (B) or murine breast cancer E0771.LMB (C) cells that bind to COS1 (control) or DPEP1 COS1 in the absence or presence of LSALT (50 μM).

[4] = test system: activated (TNFα and IL1β treated) HLMVEC; experiment: Cancer cell binding to activated human lung microvascular endothelial cells; assay type: cell-based; conditions: 50 μM
Source text: LSALT decreases binding of metastatic cancer cells to human lung microvascular endothelial cells (HLMVEC) activated by TNFα and IL1β.

[5] = target: T2, DPEP1 (Homo sapiens, UniProt P16444); experiment: Biotin transfer, neutravidin precipitation and DPEP1 western blot; assay type: binding; design: expressed in transfected cells; host or cells: Cos-1; conditions: 10 mg/ml biotin transfer peptide, UV activation
T2 sequence (P16444 17-385): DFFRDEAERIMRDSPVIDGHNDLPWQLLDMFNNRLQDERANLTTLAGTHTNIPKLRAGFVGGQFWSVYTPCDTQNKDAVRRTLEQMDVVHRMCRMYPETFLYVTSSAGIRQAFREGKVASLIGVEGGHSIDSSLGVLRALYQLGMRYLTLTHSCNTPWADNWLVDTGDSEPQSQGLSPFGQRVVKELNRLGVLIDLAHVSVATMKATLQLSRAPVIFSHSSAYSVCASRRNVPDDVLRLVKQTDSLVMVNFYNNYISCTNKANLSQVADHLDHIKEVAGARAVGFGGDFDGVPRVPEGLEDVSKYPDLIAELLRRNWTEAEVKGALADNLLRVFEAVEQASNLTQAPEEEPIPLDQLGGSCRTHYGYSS
Protocol: Cos-1 cells were transiently transfected with either 3 or 5 μg of membrane dipeptidase (DPEP-1) cDNA corresponding to the rat (Shown in FIG. 5A), human (Shown in FIG. 5B), or canine (Shown in FIG. 5E) DPEP-1 gene using Lipofectamine 2000 (Invitrogen) reagent in OptiMEM medium. 24 hours after transfection, DPEP-1 expresisng cells were re-seeded on collagen coated (neutralized) wells in 24 well plates and allowed to grow for 24 hours at 37° C. […] Cells were blocked with FBS/NBSA/Tween in PBS for 30 minutes on ice. Cells were then washed with PBS and incubated with Alexa-488 (green) conjugated LSALT, GFE-1, control peptide or DPEP-1 antibody ( 1/100) (Sigma) on ice for 30 minutes. […] After incubation, cells were washed with PBS and treated with 10 mg/ml biotin transfer peptide (LSALT, GFE-1 or Control Peptide (KGAL)] for 10 minutes. Cells were then washed with PBS and biotin transfer was enabled by UV activation of the aryl azide groups for 15 minutes at 363 nm. Residual fluid was removed and monolayers were lysed either with octyl-glucoside/RIPA or 8M urea. Isolated supernatants were rotated with 50 μl of neutr-avidin agarose beads at 4° C. for 24 hours. Beads were washed with corresponding buffers, boiled in Laemmli buffer and analyzed by western blot using a DPEP-1 specific antibody (Proteintech).

T1 sequence (Q9H4A9 33-463): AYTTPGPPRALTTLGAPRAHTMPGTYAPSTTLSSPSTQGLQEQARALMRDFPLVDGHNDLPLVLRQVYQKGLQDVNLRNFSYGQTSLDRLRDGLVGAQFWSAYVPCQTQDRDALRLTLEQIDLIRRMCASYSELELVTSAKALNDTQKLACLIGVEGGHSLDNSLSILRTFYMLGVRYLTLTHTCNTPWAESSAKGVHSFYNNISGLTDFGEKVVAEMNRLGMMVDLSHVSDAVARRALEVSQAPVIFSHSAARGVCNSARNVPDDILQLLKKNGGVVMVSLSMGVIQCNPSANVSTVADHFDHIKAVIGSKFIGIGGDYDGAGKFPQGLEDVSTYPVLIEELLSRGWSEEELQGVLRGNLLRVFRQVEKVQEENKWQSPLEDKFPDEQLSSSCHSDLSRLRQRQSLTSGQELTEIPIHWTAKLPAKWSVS

H-LSALTPSPSWLKYKAL [LSALT]
tumor burden in livers (liver metastatic lesions) ([1]; animals injected with 4T1 murine breast cancer cells): reduces tumor burden in livers of animals injected with metastatic cancer cells | tumor burden in livers and lungs ([1]; animals injected with metastatic cancer cells): reduces tumor burden in livers and lungs | binding to human DPEP2 transfected Cos-1 cells [2]: does not Bind | binding of murine breast cancer cells (E0771.LMB) to DPEP1 transfected COS-1 cells [3]: inhibits binding of murine cancer cells to DPEP1 | binding of murine melanoma cells (B16-F10) to DPEP1 transfected COS-1 cells [3]: inhibits binding of murine cancer cells to DPEP1 | binding of murine melanoma cells (B16-F10) to activated HLMVEC [4]: decreased binding | binding of murine sarcoma cells (Tao-1) to activated HLMVEC [4]: decreased binding | interaction with DPEP1 by biotin transfer [5]: able to interact with DPEP1

From patent US11286278B2, “DPEP-1 binding agents and methods of use” (Arch Biopartners, Inc., priority 2018, dated 2022)
